Where “and” joins values, the source holds several entries; their conditions need not be identical. Equal values may be shown once.
Key:
Format in all cases: in vivo
[1] = system: rice (ORYSA); assay: Greenhouse postemergence safening trial, visual injury on rice; settings: Table 19
Description: (§1) Greenhouse Trial Methodology—Evaluation of Postemergence Herbicidal Safening in Crops
(§2) Seeds of the desired test plant species were planted in a 90:10% v/v (volume/volume) mixture of PRO-MIX® BX (Premier Tech Horticulture, Quakertown, PA, USA) and PROFILE® GREENS GRADE™ (Profile Products LLC, Buffalo Grove, IL, USA) planting mixture, which typically has a pH of 5.2 to 6.2 and an organic matter content of at least 50 percent, in plastic pots with a surface area of 103.2 square centimeters (cm^2). When required to ensure good germination and healthy plants, a fungicide treatment and/or other chemical or physical treatment was applied. The plants were grown for 7-36 days (d) in a greenhouse with an approximate 14-hour (h) photoperiod which was maintained at about 23° C. during the day and 22° C. during the night. Nutrients and water were added on a regular basis and supplemental lighting was provided with overhead metal halide 1000-Watt lamps as necessary. The plants were employed for testing when they reached the second or third true leaf stage.
(§3) Emulsifiable concentrates of each of each pyridine carboxylate herbicide (Compound A or Compound B) were prepared at 100 grams acid equivalent per liter (g ae/L). An aliquot of each emulsifiable concentrate was placed in a 25 mL glass vial and diluted with an aqueous mixture of 1.25% (v/v) ACTIROB® B esterified rapeseed oil (Bayer Crop Science, Research Triangle Park, NC, USA) or MSO® Concentrate with LECI-TECH® methylated soybean oil (Loveland Products, Loveland, CO, USA) to obtain concentrated stock solutions at the highest application rate for each herbicide, based upon a 12 milliliter (mL) application volume at a rate of 187 liters per hectare (L/ha). The concentrated stock solutions were further diluted with an aqueous mixture of 1.25% v/v ACTIROB® B or MSO® Concentrate with LECI-TECH® to obtain stock solutions at reduced application rates for each herbicide. Spray solutions of the herbicide combinations (Compound A or Compound B plus safener) were prepared by adding weighed amounts or aliquots of the safener to the stock solutions of Compound A or Compound B to form 12-mL spray solutions in two-way combinations. […]
(§4) The treated plants and control plants were placed in a greenhouse as described above and watered by sub-irrigation to prevent wash-off of the test compounds. After 20-22 d, the condition of the test plants as compared with that of the control plants was determined visually and scored on a scale of 0 to 100 percent where 0 corresponds to no injury and 100 corresponds to complete kill.

[2] = system: Matricaria inodora (false chamomile), MATIN; assay: Greenhouse postemergence trial, visual injury on false chamomile
Description: as §1, §2
(§5) Emulsifiable concentrates of each of each pyridine carboxylate herbicide (Compound A or Compound B) were prepared at 100 grams acid equivalent per liter (g ae/L). An aliquot of each emulsifiable concentrate was placed in a 25 mL glass vial and diluted with an aqueous mixture of 1.25% (v/v) ACTIROB® B esterified rapeseed oil (Bayer Crop Science, Research Triangle Park, NC, USA) or MSO® Concentrate with LECI-TECH® methylated soybean oil (Loveland Products, Loveland, CO, USA) to obtain concentrated stock solutions at the highest application rate for each herbicide, based upon a 12 milliliter (mL) application volume at a rate of 187 liters per hectare (L/ha). The concentrated stock solutions were further diluted with an aqueous mixture of 1.25% v/v ACTIROB® B or MSO® Concentrate with LECI-TECH® to obtain stock solutions at reduced application rates for each herbicide. Spray solutions of the herbicide combinations (Compound A or Compound B plus safener) were prepared by adding weighed amounts or aliquots of the safener to the stock solutions of Compound A or Compound B to form 12-mL spray solutions in two-way combinations.
(§6) The spray solutions were applied to the plant material with an overhead Mandel track sprayer equipped with 8002E nozzles calibrated to deliver 187 L/ha over an application area of 0.503 square meters (m^2) at a spray height of 18 inches (43 centimeters (cm)) above the average plant canopy. Control plants were sprayed in the same manner with the solvent blank. All herbicide (component a) application rates are given as “g ae/ha” and all safener (component b) application rates are given as “g ai/ha.”
as §4

[3] = system: Triticum aestivum (winter wheat), TRZAW; assay: Greenhouse postemergence safening trial, visual injury on winter wheat
Description: (§7) Greenhouse Trial Methodology-Evaluation of Postemergence Herbicidal […] in Crops […] When required to ensure good germination and healthy plants, a fungicide treatment and/or other chemical or physical treatment was applied. The plants were grown for 7-36 days (d) in a greenhouse with an approximate 14-hour (h) photoperiod which was maintained at about 23° C. during the day and 22° C. during the night. Nutrients and water were added on a regular basis and supplemental lighting was provided with overhead metal halide 1000-Watt lamps as necessary. The plants were employed for testing when they reached the second or third true leaf stage. Emulsifiable concentrates of each of each pyridine carboxylate herbicide (Compound A or Compound B) were prepared at 100 grams acid equivalent per liter (g ae/L). […] The concentrated stock solutions were further diluted with an aqueous mixture of 1.25% […] or MSO® Concentrate with LECI-TECH® to obtain stock solutions at reduced application rates for each herbicide. Spray solutions of the herbicide combinations (Compound A or Compound B plus safener) were prepared by adding weighed amounts or aliquots of the safener to the stock solutions of Compound A or Compound B to form 12-mL spray solutions in two-way combinations. […] Control plants were sprayed in the same manner with the solvent blank. All herbicide (component a) application rates are given as “g ae/ha” and all safener (component b) application rates are given as “g ai/ha.” The treated plants and control plants were placed in a greenhouse as described above and watered by sub-irrigation to prevent wash-off of the test compounds.

[4] = system: velvetleaf (ABUTH, Abutilon theophrasti); assay: Greenhouse postemergence trial, visual injury on velvetleaf; settings: Table 19
Description: as §1, §2, §3, §4

[5] = system: Italian ryegrass (LOLMU, Lolium multiflorum); assay: Greenhouse postemergence trial, visual injury on Italian ryegrass; settings: Table 19
Description: as §1, §2, §3, §4

[6] = system: Polygonum convulvus (wild buckwheat), POLCO; assay: Greenhouse postemergence trial, visual injury on wild buckwheat
Description: as §1, §2, §5, §6, §4

[7] = system: Hordeum vulgare (spring barley), HORVS; assay: Greenhouse postemergence safening trial, visual injury on spring barley
Description: as §7

[8] = system: kochia (KCHSC, Kochia scoparia); assay: Greenhouse postemergence trial, visual injury on kochia; settings: Table 19
Description: as §1, §2, §3, §4

[9] = system: wild pansy (VIOTR, Viola tricolor); assay: Greenhouse postemergence trial, visual injury on wild pansy; settings: Table 19
Description: as §1, §2, §3, §4

[10] = system: Triticum aestivum (durum wheat), TRZDU; assay: Greenhouse postemergence safening trial, visual injury on durum wheat
Description: as §7

[11] = system: Brassica napus (winter rape), BRSNW; assay: Greenhouse postemergence trial, visual injury on winter rape
Description: as §7

[12] = CQC-mexyl 10 g/ha alone, Table 16
[13] = CQC-mexyl 20 g/ha alone, Table 16
[14] = CQC-mexyl 40 g/ha alone, Table 16
[15] = CQC-mexyl 80 g/ha alone, Table 16
[16] = CQC-mexyl 5 g/ha alone, Table 15
[17] = CQC-mexyl 10 g/ha alone, Table 15
[18] = CQC-mexyl 20 g/ha alone, Table 15
[19] = CQC-mexyl 20 g/ha alone, Table 19
[20] = CQC-mexyl 40 g/ha alone, Table 14
[21] = CQC-mexyl 40 g/ha alone, Table 15
[22] = CQC-mexyl 40 g/ha alone, Table 19
[23] = CQC-mexyl 80 g/ha alone, Table 19
[24] = Compound A 40 g/ha alone, Table 16
[25] = Compound A 20 g/ha alone, Table 15
[26] = Compound A 20 g/ha alone, Table 19
[27] = Compound A 40 g/ha alone, Table 14

## CCCCCC(C)OC(=O)COc1ccc(Cl)c2cccnc12 (stereo not shown) [CQC-mexyl, cloquintocet-mexyl]
[1]; CQC-mexyl 20 g/ha alone
  % visual injury, Ob: 0%
[1]; CQC-mexyl 40 g/ha alone
  % visual injury, Ob: 0%
[1]; CQC-mexyl 80 g/ha alone
  % visual injury, Ob: 0%
[2]; [12]
  % visual injury, Ob: 0%
[2]; [13]
  % visual injury, Ob: 0%
[2]; [14]
  % visual injury, Ob: 0%
[2]; [15]
  % visual injury, Ob: 0%
[3]; [16]
  % visual injury, Ob: 0%
[3]; [17]
  % visual injury, Ob: 0%
[3]; [12]
  % visual injury, Ob: 0%
[3]; [18]
  % visual injury, Ob: 0%
[3]; [13]
  % visual injury, Ob: 0%
[3]; [19]
  % visual injury, Ob: 0%
[3]; [20]
  % visual injury, Ob: 0%
[3]; [21]
  % visual injury, Ob: 0%
[3]; [14]
  % visual injury, Ob: 0%
[3]; [22]
  % visual injury, Ob: 0%
[3]; [15]
  % visual injury, Ob: 0%
[3]; [23]
  % visual injury, Ob: 0%
[3]; safener alone 40 g/ha
  % visual injury, Ob: 0%
[4]; CQC-mexyl 20 g/ha alone
  % visual injury, Ob: 0%
[4]; CQC-mexyl 40 g/ha alone
  % visual injury, Ob: 0%
[4]; CQC-mexyl 80 g/ha alone
  % visual injury, Ob: 0%
[5]; CQC-mexyl 20 g/ha alone
  % visual injury, Ob: 0%
[5]; CQC-mexyl 40 g/ha alone
  % visual injury, Ob: 0%
[5]; CQC-mexyl 80 g/ha alone
  % visual injury, Ob: 0%
[6]; [19]
  % visual injury, Ob: 0%
[6]; [22]
  % visual injury, Ob: 0%
[6]; [23]
  % visual injury, Ob: 0%
[6]; safener alone 5 g/ha
  % visual injury, Ob: 0%
[6]; safener alone 10 g/ha
  % visual injury, Ob: 0%
[6]; safener alone 20 g/ha
  % visual injury, Ob: 0%
[6]; safener alone 40 g/ha
  % visual injury, Ob: 0%
[7]; [16]
  % visual injury, Ob: 0%
[7]; [17]
  % visual injury, Ob: 0%
[7]; [12]
  % visual injury, Ob: 0%
[7]; [18]
  % visual injury, Ob: 0%
[7]; [13]
  % visual injury, Ob: 0%
[7]; [20]
  % visual injury, Ob: 0%
[7]; [21]
  % visual injury, Ob: 0%
[7]; [14]
  % visual injury, Ob: 0%
[7]; [15]
  % visual injury, Ob: 0%
[7]; safener alone 5 g/ha
  % visual injury, Ob: 0%
[7]; safener alone 10 g/ha
  % visual injury, Ob: 0%
[7]; safener alone 20 g/ha
  % visual injury, Ob: 0%
[7]; safener alone 40 g/ha
  % visual injury, Ob: 0%
[8]; CQC-mexyl 20 g/ha alone
  % visual injury, Ob: 0%
[8]; CQC-mexyl 40 g/ha alone
  % visual injury, Ob: 0%
[8]; CQC-mexyl 80 g/ha alone
  % visual injury, Ob: 0%
[9]; CQC-mexyl 20 g/ha alone
  % visual injury, Ob: 0%
[9]; CQC-mexyl 40 g/ha alone
  % visual injury, Ob: 0%
[9]; CQC-mexyl 80 g/ha alone
  % visual injury, Ob: 0%
[10]; [20]
  % visual injury, Ob: 0%
[10]; safener alone 40 g/ha
  % visual injury, Ob: 0%
[11]; [16]
  % visual injury, Ob: 0%
[11]; [17]
  % visual injury, Ob: 0%
[11]; [18]
  % visual injury, Ob: 0%
[11]; [19]
  % visual injury, Ob: 0%
[11]; [21]
  % visual injury, Ob: 0%
[11]; [22]
  % visual injury, Ob: 0%
[11]; [23]
  % visual injury, Ob: 0%
[11]; safener alone 5 g/ha
  % visual injury, Ob: 0%
[11]; safener alone 10 g/ha
  % visual injury, Ob: 0%
[11]; safener alone 20 g/ha
  % visual injury, Ob: 0%
[11]; safener alone 40 g/ha
  % visual injury, Ob: 0%

## N#CCOC(=O)c1nc(-c2ccc3cc[nH]c3c2F)c(F)c(N)c1Cl [Compound A, cyanomethyl 4-amino-3-chloro-5-fluoro-6-(7-fluoro-1H-indol-6-yl)pyridine-2-carboxylate]
[1]; Compound A 20 g/ha alone
  % visual injury, Ob: 10%
[2]; [24]
  % visual injury, Ob: 100%
[2]; herbicide alone 40 g/ha
  % visual injury, Ob: 100%
[3]; [25]
  % visual injury, Ob: 20%
[3]; [26]
  % visual injury, Ob: 25%
[3]; [27]
  % visual injury, Ob: 35%
[3]; [24]
  % visual injury, Ob: 35%
[3]; herbicide alone 20 g/ha
  % visual injury, Ob: 20%
[3]; herbicide alone 40 g/ha
  % visual injury Δ: 0%
  % visual injury, Ob: 35% and 25%
[4]; Compound A 20 g/ha alone
  % visual injury, Ob: 95%
[5]; Compound A 20 g/ha alone
  % visual injury, Ob: 5%
[6]; [26]
  % visual injury, Ob: 100%
[7]; [25]
  % visual injury, Ob: 20%
[7]; [27]
  % visual injury, Ob: 20%
[7]; [24]
  % visual injury, Ob: 40%
[8]; Compound A 20 g/ha alone
  % visual injury, Ob: 97%
[9]; Compound A 20 g/ha alone
  % visual injury, Ob: 30%
[10]; [27]
  % visual injury, Ob: 45%
[10]; herbicide alone 40 g/ha
  % visual injury, Ob: 45%
[11]; [25]
  % visual injury, Ob: 70%
[11]; [26]
  % visual injury, Ob: 85%
[11]; herbicide alone 20 g/ha
  % visual injury, Ob: 70% and 95%
